Here are results for three compounds from patent US20210285024A1, “In vitro Screening Assay of TCPase Modulators” (CENTRE NATIONAL DE LA RECHERCHE SCIENTIFIQUE (CNRS), priority 2018, published 2021).

One experiment addresses SVBP-VASH2 complex (Homo sapiens, UniProt Q86V25). In words: Detyrosination assay using tubulin purified from Sf9 cells and recombinant SVBP-VASH2 complex. The following applies: 0.1 μM and 10 μM; 15 min at 37° C.; microtubules from Sf9 tubulin; western blot. (In general: Immunoblotting shows a protein as a band on a membrane.)
The test system of experiment [1] is HEK293T cells deficient for VASH1 and VASH2. The following applies: Nieuwenhuis et al., 2017; cited from earlier work.

Chain of SVBP-VASH2 complex (Q86V25 whole entry): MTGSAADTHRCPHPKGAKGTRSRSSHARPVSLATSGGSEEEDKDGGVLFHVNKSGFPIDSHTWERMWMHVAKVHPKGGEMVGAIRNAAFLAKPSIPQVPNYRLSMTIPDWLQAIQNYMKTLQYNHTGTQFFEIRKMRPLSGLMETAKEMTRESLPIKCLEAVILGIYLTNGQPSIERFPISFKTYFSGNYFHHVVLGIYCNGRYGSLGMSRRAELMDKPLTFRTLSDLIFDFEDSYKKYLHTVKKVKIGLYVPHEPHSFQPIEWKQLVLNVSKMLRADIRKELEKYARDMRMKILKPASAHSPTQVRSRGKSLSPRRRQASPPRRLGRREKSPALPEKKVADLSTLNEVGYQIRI
Chain of SVBP-VASH2 complex (Q8N300 whole entry partner): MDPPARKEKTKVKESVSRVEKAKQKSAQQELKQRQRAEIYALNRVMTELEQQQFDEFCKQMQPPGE
Experimental for SVBP-VASH2 complex: FIG. 17: Detyrosination assay performed using tubulin purified from Sf9 cells and recombinant SVBP-VASH2 complex in absence or presence of putative inhibitors of detyrosinase. […] FIG. 17b: Western blot. FIG. 17c: Representation of relative optical density (detyrosination/tubulin).
A negative control sample consisting of the tubulin in the reaction buffer in absence of the detyrosinase (SVBP-VASH2 complex) was also analysed by western blotting (FIG. 17b).

As for `C=C1C(=O)O[C@@H]2C[C@@]3(C)CCC[C@H](C)C3=C[C@H]12` [alantolactone, Alantolactone], the “reduction of the detyrosinating activity of SVBP-VASH2 complex” value on SVBP-VASH2 complex is recorded as “did not result in any significant reduction”. For `CC(=O)O[C@H]1C(=O)[C@@]2(C)[C@H]([C@H](OC(=O)c3ccccc3)[C@]3(O)C[C@H](OC(=O)[C@H](O)[C@@H](NC(=O)c4ccccc4)c4ccccc4)C(C)=C1C3(C)C)[C@]1(OC(C)=O)CO[C@@H]1C[C@@H]2O` [Taxol, paclitaxel], in experiment [1], the alpha-tubulin detyrosination entry is recorded as “robust increase”. As for `C=C1C(=O)O[C@@H]2/C=C(\C)CC/C=C(\C)CC[C@@H]12` [costunolide, Costunolide], at SVBP-VASH2 complex, the “reduction of the detyrosinating activity of SVBP-VASH2 complex” value is on record as “did not result in any significant reduction”.
